Data on 13 compounds can be found in patent US20250361230A1, “LATS Inhibitors and Uses Thereof” (The USA, as Represented by the Secretary, Dept. of Heath …, priority 2022, published 2025).

Type in all cases: biochemical
Experiment [1] concerns the target T1, LATS2 (Homo sapiens, UniProt Q9NRM7).
T1 sequence (Q9NRM7 1-1088): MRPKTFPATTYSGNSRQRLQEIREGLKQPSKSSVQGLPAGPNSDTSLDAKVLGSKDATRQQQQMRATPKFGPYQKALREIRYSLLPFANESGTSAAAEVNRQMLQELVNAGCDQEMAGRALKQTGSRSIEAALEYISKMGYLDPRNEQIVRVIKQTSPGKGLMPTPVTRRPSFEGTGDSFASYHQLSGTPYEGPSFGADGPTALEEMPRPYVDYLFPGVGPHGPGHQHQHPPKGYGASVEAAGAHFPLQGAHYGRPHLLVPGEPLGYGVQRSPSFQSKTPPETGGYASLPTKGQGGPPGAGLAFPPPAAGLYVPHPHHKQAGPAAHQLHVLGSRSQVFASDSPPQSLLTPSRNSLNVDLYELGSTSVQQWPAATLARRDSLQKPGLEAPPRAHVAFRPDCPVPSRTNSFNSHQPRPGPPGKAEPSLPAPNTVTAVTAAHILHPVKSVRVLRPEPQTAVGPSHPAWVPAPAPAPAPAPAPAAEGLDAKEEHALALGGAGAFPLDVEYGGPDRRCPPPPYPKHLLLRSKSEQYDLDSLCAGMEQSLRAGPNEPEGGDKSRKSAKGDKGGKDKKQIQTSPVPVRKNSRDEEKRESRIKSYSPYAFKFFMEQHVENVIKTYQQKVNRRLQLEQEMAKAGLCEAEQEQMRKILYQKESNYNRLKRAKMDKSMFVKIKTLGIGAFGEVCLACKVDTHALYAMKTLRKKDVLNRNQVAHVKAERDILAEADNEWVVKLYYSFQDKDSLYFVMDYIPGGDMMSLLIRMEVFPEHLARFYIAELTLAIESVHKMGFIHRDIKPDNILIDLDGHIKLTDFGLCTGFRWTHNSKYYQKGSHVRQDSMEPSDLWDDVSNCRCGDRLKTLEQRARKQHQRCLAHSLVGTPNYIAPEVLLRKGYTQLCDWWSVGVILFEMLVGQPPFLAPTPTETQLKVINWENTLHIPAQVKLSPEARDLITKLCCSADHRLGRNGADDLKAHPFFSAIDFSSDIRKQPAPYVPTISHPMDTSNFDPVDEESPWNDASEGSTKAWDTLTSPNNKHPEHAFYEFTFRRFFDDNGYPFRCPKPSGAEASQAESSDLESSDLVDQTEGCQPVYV
Put plainly: RBC HotSpot kinase assay (33P-ATP, P81 filter-binding), LATS2. As to conditions: Table 28, biochemical kinase assay; read-out: LATS2 IC50. An outline of the steps:
(§1)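 Radiometric 33P-ATP kinase reaction in 20 mM Hepes pH 7.5, 10 mM MgCl2, 1 mM EGTA, 0.01% Brij35, 0.02 mg/ml BSA, 0.1 mM Na3VO4, 2 mM DTT, 1% DMSO. Compound preincubated with kinase and substrate 20 min, then 2 h at room temperature; P81 filter-binding read-out. IC50 (nM) from 10-point singlet curves.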

For experiment [2], the target named is T2, LATS1 (Homo sapiens, UniProt O95835).
T2 sequence (O95835 1-1130): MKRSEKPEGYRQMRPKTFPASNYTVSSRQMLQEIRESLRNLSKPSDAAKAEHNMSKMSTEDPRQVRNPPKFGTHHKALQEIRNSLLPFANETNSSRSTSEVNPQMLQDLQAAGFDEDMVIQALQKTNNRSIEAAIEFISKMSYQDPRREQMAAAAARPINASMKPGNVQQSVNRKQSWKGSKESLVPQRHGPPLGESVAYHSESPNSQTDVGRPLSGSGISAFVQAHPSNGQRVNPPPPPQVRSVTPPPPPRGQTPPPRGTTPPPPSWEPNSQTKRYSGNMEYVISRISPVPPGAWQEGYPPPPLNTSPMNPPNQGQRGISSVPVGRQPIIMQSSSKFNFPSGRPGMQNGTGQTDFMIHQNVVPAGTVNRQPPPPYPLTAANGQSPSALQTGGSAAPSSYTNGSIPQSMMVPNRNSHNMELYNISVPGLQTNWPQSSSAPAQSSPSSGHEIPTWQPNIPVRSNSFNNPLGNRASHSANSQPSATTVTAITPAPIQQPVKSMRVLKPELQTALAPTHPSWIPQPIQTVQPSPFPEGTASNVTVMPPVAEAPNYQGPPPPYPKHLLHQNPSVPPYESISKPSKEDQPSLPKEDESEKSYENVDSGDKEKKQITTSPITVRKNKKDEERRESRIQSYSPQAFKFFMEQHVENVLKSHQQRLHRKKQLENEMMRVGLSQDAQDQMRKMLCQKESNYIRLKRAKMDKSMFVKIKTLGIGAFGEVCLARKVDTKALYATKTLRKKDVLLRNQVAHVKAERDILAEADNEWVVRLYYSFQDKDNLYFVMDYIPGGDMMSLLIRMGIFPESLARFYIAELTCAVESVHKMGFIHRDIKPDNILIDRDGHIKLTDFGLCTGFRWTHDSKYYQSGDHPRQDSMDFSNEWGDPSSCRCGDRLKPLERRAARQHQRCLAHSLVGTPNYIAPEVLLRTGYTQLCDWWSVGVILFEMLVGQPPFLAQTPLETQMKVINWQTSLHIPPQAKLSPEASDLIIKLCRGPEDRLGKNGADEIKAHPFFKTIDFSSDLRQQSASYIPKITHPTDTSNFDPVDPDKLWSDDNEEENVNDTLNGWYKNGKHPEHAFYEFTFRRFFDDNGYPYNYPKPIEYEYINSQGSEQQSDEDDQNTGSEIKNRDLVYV
Put plainly: RBC HotSpot kinase assay (33P-ATP, P81 filter-binding), LATS1. As to conditions: Table 28, biochemical kinase assay; read-out: LATS1 IC50. In outline: as §1

Experiment [3] addresses AKT (Homo sapiens, UniProt P31749). The experiment in a line: RBC HotSpot kinase assay (33P-ATP, P81 filter-binding), AKT. As to conditions: Table 28, biochemical kinase assay; read-out: AKT IC50. An outline of the steps: as §1

Chain of AKT (P31749 whole entry): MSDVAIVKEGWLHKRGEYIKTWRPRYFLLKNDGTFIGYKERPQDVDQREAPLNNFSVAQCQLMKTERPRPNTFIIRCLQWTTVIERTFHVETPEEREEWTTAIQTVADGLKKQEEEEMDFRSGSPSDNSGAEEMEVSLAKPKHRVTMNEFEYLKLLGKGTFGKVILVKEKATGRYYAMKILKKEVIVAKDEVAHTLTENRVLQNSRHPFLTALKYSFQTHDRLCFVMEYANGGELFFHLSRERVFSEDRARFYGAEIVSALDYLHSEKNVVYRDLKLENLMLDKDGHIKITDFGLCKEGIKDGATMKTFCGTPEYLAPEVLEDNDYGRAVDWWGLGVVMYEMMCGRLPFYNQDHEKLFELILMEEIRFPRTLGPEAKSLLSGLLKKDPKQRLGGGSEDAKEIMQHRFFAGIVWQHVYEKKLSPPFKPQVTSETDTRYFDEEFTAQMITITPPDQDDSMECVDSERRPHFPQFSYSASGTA

On to `Cc1ccccc1-c1c[nH]c2nccc(-c3ccc(CN)cc3)c12` [Compound 229, (4-(3-(o-tolyl)-1H-pyrrolo[2,3-b]pyridin-4-yl)phenyl) methanamine], for which the IC50 – broadly, the concentration needed to halve the response being measured – in experiment [1] was 235 nM; in experiment [2] it was 235 nM; in experiment [3] it was 6340 nM.

Consider `COCCNc1cc(-c2ccnc3[nH]ccc23)ccc1CN` [Compound 231, 2-(aminomethyl)-N-(2-methoxyethyl)-5-(1H-pyrrolo[2,3-b]pyridin-4-yl)aniline], for which the half-inhibitory concentration (IC50) in experiment [1] was determined as 144 nM; in experiment [2], 24 nM; in experiment [3] it was 437 nM.

As to `CC(C)c1cc(-c2ccnc3[nH]cc(Cl)c23)ccc1CN` [Compound 232, (4-(3-chloro-1H-pyrrolo[2,3-b]pyridin-4-yl)-2-isopropylphenyl) methanamine], the concentration for half-maximal inhibition (IC50) in experiment [1] is 11.6 nM; in experiment [2], 3.3 nM; in experiment [3], 60.5 nM.

For `CC(C)c1cc(-c2ccnc3[nH]ccc23)ccc1CN` [Compound 233, (2-isopropyl-4-(1H-pyrrolo[2,3-b]pyridin-4-yl)phenyl) methanamine], the IC50 in experiment [1] is 35.5 nM; in experiment [2] it was 5.6 nM; in experiment [3], 281 nM.

Consider `NCc1ccc(-c2ccnc3[nH]cc(Cl)c23)cc1-c1ccccc1` [Compound 234, (5-(3-chloro-1H-pyrrolo[2,3-b]pyridin-4-yl)-[1,1′-biphenyl]-2-yl)methanamine], for which the IC50 was determined as 23.9 nM in experiment [1], 6.5 nM in experiment [2] and 68.4 nM in experiment [3].

On to `CCC(CC)Nc1cc(-c2ccnc3[nH]ccc23)ccc1CN` [Compound 235, 2-(aminomethyl)-N-(pentan-3-yl)-5-(1H-pyrrolo[2,3-b]pyridin-4-yl)aniline], for which the IC50 came to 371 nM in experiment [1], 412 nM in experiment [2] and 788 nM in experiment [3].

On to `CCN(CC)c1cc(-c2ccnc3[nH]ccc23)ccc1CNC(C)=O` [Compound 236, N-(2-(diethylamino)-4-(1H-pyrrolo[2,3-b]pyridin-4-yl)benzyl)acetamide], for which the IC50 in experiment [1] was determined as 887 nM; in experiment [2] it was 772 nM; in experiment [3] it was 3590 nM.

`CCN(CC)c1cc(-c2ccnc3[nH]ccc23)ccc1CN` [Compound 237, 2-(aminomethyl)-N,N-diethyl-5-(1H-pyrrolo[2,3-b]pyridin-4-yl)aniline]: the concentration for half-maximal inhibition (IC50) in experiment [1] was 23 nM; in experiment [2], 12 nM; in experiment [3] it was 100 nM.

For `COc1ccc(-c2c[nH]c3nccc(-c4ccc(CN)cc4)c23)cc1` [Compound 239, (4-(3-(4-methoxyphenyl)-1H-pyrrolo[2,3-b]pyridin-4-yl)phenyl) methanamine], the values for the half-maximal inhibitory concentration (IC50) in experiment [1], in experiment [2] and in experiment [3] were 26 nM, 67 nM and 1310 nM, respectively.

On to `C=C(C)c1cc(-c2ccnc3[nH]ccc23)ccc1CN` [Compound 240, (2-(prop-1-en-2-yl)-4-(1H-pyrrolo[2,3-b]pyridin-4-yl)phenyl) methanamine], for which the half-maximal inhibitory concentration (IC50) in experiment [1] came out at 33.8 nM; in experiment [2], 4.3 nM; in experiment [3] it was 178 nM.

As for `C=C(C)c1c[nH]c2nccc(-c3ccc(CN)cc3)c12` [Compound 241, (4-(3-(prop-1-en-2-yl)-1H-pyrrolo[2,3-b]pyridin-4-yl)phenyl) methanamine], the half-maximal inhibitory concentration (IC50) in experiment [1] came to 6 nM; in experiment [2], 19 nM; in experiment [3] it was 809 nM.

Consider `COc1ccccc1-c1c[nH]c2nccc(-c3ccc(CN)cc3)c12` [Compound 242, (4-(3-(2-methoxyphenyl)-1H-pyrrolo[2,3-b]pyridin-4-yl)phenyl) methanamine], for which the IC50 in experiment [1] is 10 nM; in experiment [2], 11 nM; in experiment [3], 1320 nM.

For the compound `NCc1ccc(-c2ccnc3[nH]cc(-c4ccc(F)cc4)c23)cc1` [Compound 243, (4-(3-(4-fluorophenyl)-1H-pyrrolo[2,3-b]pyridin-4-yl)phenyl) methanamine], the IC50 was found to be 24 nM in experiment [1], 72 nM in experiment [2] and 2330 nM in experiment [3].
